Holding throughout (type): cell-based
Data set [1] is described as follows: Cytotoxicity (CC50) in NHDF cells. The settings on record: human, CHIKV. The protocol:
(§1) As used herein, “CC50” is intended to refer to the concentration of a substance (e.g., a compound or a drug) that is required for 50% reduction of cell viability. In one aspect, an CC50 can refer to the concentration of a substance that is required for 50% reduction (i.e., cytotoxicity) in vivo, as further defined elsewhere herein.
VTR=Virus titer reduction in log at 10 μM concentration. NT: not tested, ND: not determined.

Data set [2] relates to WNV. The data set is described as follows: Antiviral activity against WNV in HEK293 cells. The following applies: West Nile virus; for EC90: HEK293, read-out: WNV (HEK293 cells) EC90; for log reduction at 10 µM: HEK293, read-out: WNV (HEK293 cells) VTR (virus titer reduction).
Data set [3] deals with H3N2 strain. The data set is described as follows: Antiviral activity against Influenza H3N2 strain in MDCK cells. The settings on record: Influenza A virus; for log reduction at 20 µM: at 20 μM concentration, 4-6 hours pre-incubation, read-out: H3N2 strain (MDCK cells) VTR (virus titer reduction); for EC90: 4-6 hours pre-incubation with compound. Here is the method: (§2) The antiviral activity against Influenza viruses (H1N1 and H3N2 strains) evaluated in MDCK cells (4-6 hours pre-incubation with compound) shown in Table 5 below. VTR=Virus titer reduction in log at 20 μM concentration. NT: not tested, ND: not determined.

Data set [4] concerns ZIKA. The data set is described as follows: Antiviral activity against ZIKA in HEK 293 cells. The following applies: Zika virus; for EC90: HEK293, read-out: ZIKA (HEK 293 cells) EC90; for log reduction at 10 µM: HEK293, read-out: ZIKA (HEK 293 cells) VTR (virus titer reduction).
In data set [5] the test system is H1N1 strain. In words: Antiviral activity against Influenza H1N1 strain in MDCK cells. The following applies: Influenza A virus; for log reduction at 20 µM: at 20 μM concentration, 4-6 hours pre-incubation, read-out: H1N1 strain (MDCK cells) VTR (virus titer reduction); for EC90: 4-6 hours pre-incubation with compound. Here is the method: as §2
The subject of data set [6] is VEEV. The data set is described as follows: microbe, parasite or virus in culture. The following applies: Venezuelan equine encephalitis virus, NHDF; for EC90: read-out: VEEV (NHDF cells) EC90; for log reduction at 10 µM: read-out: VEEV (NHDF cells) VTR (virus titer reduction).
Data set [7] has as its system DENV. The data set is described as follows: Antiviral activity against DENV in HEK293 cells. The settings on record: Dengue virus; for EC90: HEK293, read-out: DENV (HEK293 cells) EC90; for log reduction at 10 µM: HEK293, read-out: DENV (HEK293 cells) VTR (virus titer reduction).
Data set [8] in a line: Cytotoxicity (CC50) in MDCK cells. The following applies: dog, H1N1. The protocol:
as §1, §2

For data set [9], the system named is CHIKV. The data set is described as follows: Antiviral activity against CHIKV in NHDF cells. The settings on record: Chikungunya virus; for EC90: read-out: CHIKV (NHDF cells) EC90; for log reduction at 10 µM: read-out: CHIKV (NHDF cells) VTR (virus titer reduction).
Data set [10] can be described thus: Cytotoxicity (CC50) in HEK293 cells. The settings on record: human, WNV. Here is the method: as §1
The antiviral activity against Alpharviruses evaluated in HEK293 cells (4 hours pre-incubation with compound before infected with virus) is shown in Table 2 below. VTR=Virus titer reduction in log at 10 μM concentration. NT: not tested, ND: not determined

In the case of `C[C@H](NP(=O)(OC[C@H]1O[C@@H](n2ncc(=O)[nH]c2=O)[C@H](O)[C@@H]1O)Oc1ccccc1)C(=O)OCc1ccc([N+](=O)[O-])o1` (mixture of isomers) [Compound 1, (5-nitrofuran-2-yl)methyl ((((2R,3S,4R,5R)-5-(3,5-dioxo-4,5-dihydro-1,2,4-triazin-2(3H)-yl)-3,4-dihydroxytetra-hydrofuran-2-yl)methoxy)(phenoxy)phosphoryl)-L-alaninate], the results for the CC50 in [1], in [8] and in data set [10] were more than 40 µM, more than 100 µM and 40 µM, respectively. Besides, the EC90 in data set [2] was 0.6 µM; in data set [4], 3.2 µM; in [6], more than 10 µM; in [7] it was 1.9 µM; in data set [9], 0.95 µM. The log reduction at 10 µM stood at 3.8 in [2]; 2.2 in data set [4]; 0.85 in data set [6]; 2.4 in data set [7]; 4.3 in [9]. Moreover, the log reduction at 20 µM is 0.6 in data set [3] and 1.6 in data set [5].

As to `C[C@H](NP(=O)(OC[C@H]1O[C@@H](n2ncc(=O)[nH]c2=O)[C@H](O)[C@@H]1O)Oc1ccccc1)C(=O)OCc1ccccc1` (mixture of isomers) [Compound 2, Benzyl ((((2R,3S,4R,5R)-5-(3,5-dioxo-4,5-dihydro-1,2,4-triazin-2(3H)-yl)-3,4-dihydroxytetrahydrofuran-2-yl)methoxy)-(phenoxy)phosphoryl)-L-alaninate], the CC50 in data set [1] was more than 40 µM; in data set [8], more than 100 µM; in data set [10] it was more than 40 µM. Moreover, the EC90 is 1.3 µM in [2]; 16 µM in data set [4]; more than 10 µM in data set [6]; 6.9 µM in data set [7]; 0.4 µM in data set [9]. The log reduction at 10 µM in [2] stood at 3; in data set [6], 0; in [7], 1.3; in [9], 0. For the same molecule, the log reduction at 20 µM came to 0.9 in data set [3] and 2.3 in data set [5].

Turning to `CCOC(=O)[C@H](C)NP(=O)(OC[C@H]1O[C@@H](n2ncc(=O)[nH]c2=O)[C@H](O)[C@@H]1O)Oc1ccccc1` (mixture of isomers) [Compound 6, ethyl ((((2R,3S,4R,5R)-5-(3,5-dioxo-4,5-dihydro-1,2,4-triazin-2(3H)-yl)-3,4-dihydroxytetrahydrofuran-2-yl)methoxy)-(phenoxy)phosphoryl)-L-alaninate], the CC50 in data set [1] was more than 40 µM; in [8] it was more than 100 µM; in data set [10] it was more than 40 µM. For the same molecule, the EC90 in [2] is 10 µM; in data set [4], 12 µM; in [6], more than 10 µM; in [7], more than 15 µM; in data set [9] it was more than 10 µM. Besides, the values for the log reduction at 20 µM in [3] and in [5] were 0.2 and 1.6, respectively. The log reduction at 10 µM in data set [6] and in [9] was 0 in each case.

In the case of `COC(=O)[C@H](C)NP(=O)(OC[C@H]1O[C@@H](n2ncc(=O)[nH]c2=O)[C@H](O)[C@@H]1O)Oc1ccccc1` (mixture of isomers) [Compound 7, methyl ((((2R,3S,4R,5R)-5-(3,5-dioxo-4,5-dihydro-1,2,4-triazin-2(3H)-yl)-3,4-dihydroxytetrahydrofuran-2-yl)methoxy)-(phenoxy)phosphoryl)-L-alaninate], the CC50 in data set [1] is more than 40 µM; in data set [8], more than 100 µM; in data set [10] it was 40 µM. Also, the EC90 in [2] is 4.3 µM; in data set [4], 7.6 µM; in data set [6] it was more than 10 µM; in data set [7] it was 5 µM; in data set [9], more than 10 µM. The log reduction at 10 µM in data set [2] amounted to 2.6; in [4], 1.3; in data set [6] it was 0; in data set [7], 3.2; in data set [9], 0. Besides, the log reduction at 20 µM in [3] stood at 1.6; in [5], 3.4.

As for `CC(C)COC(=O)[C@H](C)NP(=O)(OC[C@H]1O[C@@H](n2ncc(=O)[nH]c2=O)C(O)[C@H]1O)Oc1ccccc1` (stereo in doubt) [Compound 4, 2-isobutyl ((((2R,3S,4R,5R)-5-(3,5-dioxo-4,5-dihydro-1,2,4-triazin-2(3H)-yl)-3,4-dihydroxytetrahydrofuran-2-yl)methoxy)(phenoxy)phosphoryl)-L-alaninate], the results for the CC50 in [1], in data set [8] and in data set [10] were more than 40 µM, more than 100 µM and 40 µM, respectively. The EC90 in data set [2] was 1.2 µM; in [4] it was 4.8 µM; in data set [6] it was 8.9 µM; in data set [7] it was 2 µM; in data set [9], more than 10 µM. Moreover, the log reduction at 10 µM was found to be 3.1 in data set [2]; 2 in data set [4]; 1.18 in data set [6]; 2.2 in data set [7]; 0 in data set [9]. Further, the log reduction at 20 µM in data set [3] was 1.3; in data set [5], 3.4.

`CC(C)COC(=O)[C@H](C)N[P@](=O)(OC[C@H]1O[C@@H](n2ncc(=O)[nH]c2=O)[C@H](O)[C@@H]1O)Oc1cccc2ccccc12` [Compound 8, isobutyl ((((2R,3S,4R,5R)-5-(3,5-dioxo-4,5-dihydro-1,2,4-triazin-2(3H)-yl)-3,4-dihydroxytetrahydrofuran-2-yl)-methoxy)(naphthalen-1-yloxy)phosphoryl)-L-alaninate]: the CC50 is more than 40 µM in data set [1], more than 100 µM in data set [8] and more than 40 µM in [10]. Further, the EC90 in [2] is 2.9 µM; in data set [4], 6 µM; in data set [6] it was more than 10 µM; in [7], 3.9 µM; in data set [9], more than 10 µM. For the same molecule, the log reduction at 10 µM in [2] amounted to 2.8; in data set [4] it was 1.6; in data set [6], 0.21; in data set [7] it was 2.3; in [9], 0. Further, the figures for the log reduction at 20 µM in data set [3] and in [5] were 1.6 and 3.4, respectively.

`CC(C)[C@@H](N)C(=O)OC[C@H]1O[C@@H](n2ncc(=O)[nH]c2=O)C(O)[C@H]1O` (stereo partly drawn) [Compound 9, ((2r,3s,4r,5r)-5-(3,5-dioxo-4,5-dihydro-1,2,4-triazin-2(3H)-yl)-3,4-dihydroxytetrahydrofuran-2-yl) methyl-D-valinate]: the CC50 in [1] was more than 40 µM; in data set [8], 19.6 µM; in data set [10] it was 29 µM. Moreover, the EC90 in [2] was 0.22 µM; in data set [3] it was 2.41 µM; in data set [4], 1.4 µM; in [5], 0.77 µM; in data set [6], 3.04 µM; in data set [7], 1.3 µM. For the same molecule, the EC90 in data set [9] was 1 µM. In addition, the log reduction at 10 µM in data set [2] turned out to be 3.5; in data set [4] it was 2; in [6] it was 3.1; in data set [7], 3.2; in data set [9], 1.34. In addition, the log reduction at 20 µM in data set [3] and in data set [5] was 3.4 throughout.

For the molecule `CC[C@H](C)[C@H](N)C(=O)OC[C@H]1O[C@@H](n2ncc(=O)[nH]c2=O)[C@H](O)[C@@H]1O` [Compound 10, ((2r,3s,4r,5r)-5-(3,5-dioxo-4,5-dihydro-1,2,4-triazin-2(3H)-yl)-3,4-dihydroxytetrahydrofuran-2-yl)methyl L-isoleucinate], the CC50 is more than 40 µM in [1], 19.3 µM in data set [8] and 29 µM in [10]. Besides, the EC90 was determined as 0.2 µM in data set [2]; 3.33 µM in data set [3]; 0.5 µM in data set [4]; 3.68 µM in data set [5]; 0.62 µM in data set [6]; 0.3 µM in data set [7]. Further, the EC90 in [9] is more than 10 µM. The log reduction at 10 µM in data set [2] worked out at 3.9; in [4], 3.1; in data set [6], 3.51; in data set [7] it was 3.4; in data set [9] it was 0.39. Further, the log reduction at 20 µM in data set [3] and in data set [5] was 3.4 throughout.

The term CC50 denotes the concentration giving 50% cytotoxicity. Higher therefore signals lower toxicity to the cells. One may read the EC90 as the concentration needed for an effect of 90%.

Values taken from patent US11858956B2, “6-aza-nucleoside prodrugs as antiviral agents for treating virus infections” (Southern Research Institute, priority 2020, dated 2024).
